Test results reported in patent US20200172483A1, “HETEROCYCLIC SMALL MOLECULE MODULATORS OF HUMAN STING” (Curadev Pharma Limited, priority 2017, published 2020).
pEC50: −log10 of the molar value. Where two headings read alike, the source gives them in different places.

Tests used:
IRF pathway = experiment: Reporter gene expression assay for IRF axis in THP1-Dual cells (secreted Lucia luciferase); format: cell-based, human; conditions: 20 hr stimulation, QUANTI-Luc, EC50 range, read-out: THP-IRF activity
Protocol: (§1) THP1-Dual™ cells (Invivogen) were derived from the human THP-1 monocyte cell line by stable integration of two inducible reporter constructs. As a result, THP1-Dual™ cells allow the simultaneous study of the NF-κB pathway, by monitoring the activity of secreted SEAP, and the IRF pathway, by assessing the activity of a secreted luciferase (Lucia). […] THP1-Dual™ cells were seeded in 384-well plates in growth medium and stimulated with novel compounds. After 20 hr of stimulation supernatant were removed and reporter proteins were readily measured in the cell culture supernatant using QUANTI-Blue™ (Invivogen), a SEAP detection reagent, and QUANTI-Luc™ (Invivogen), a luciferase detection reagent on a Spectramax i3X luminometer. EC50 value ranges for exemplary compounds tested in the above assay are given.

NF-κB pathway = experiment: Reporter gene expression assay for NFκB axis in THP1-Dual cells (secreted SEAP); format: cell-based, human; conditions: 20 hr stimulation, QUANTI-Blue SEAP, EC50 range, read-out: THP-NFKB activity
Protocol: as §1

WT/R232 STING protein = biological target: T1, WT/R232 STING protein (Homo sapiens, UniProt Q86WV6, H232R); experiment: Luciferase reporter assay in HEK293T-hSTING-Luciferase cells (R232); format: cell-based; conditions: 20 hr stimulation, EC50 range
T1 construct: host or cells: HEK293T
How it was run: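 Readout is fold-induction over baseline of secreted luciferase, measured by luminescence after 20 hr compound stimulation. Cells: clonally selected HEK293T stably carrying hSTING (R232) and a luciferase reporter under five tandem ISREs fused to an ISG54 minimal promoter.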

hSTING (H232) = biological target: T2, hSTING (H232) (Homo sapiens, UniProt Q86WV6); experiment: Luciferase reporter assay in HEK293T-hSTING-Luciferase cells (H232/REF polymorph); format: cell-based; conditions: EC50 range
T2 construct: host or cells: HEK293T
Source text: (§2) • a) Stable STING expressing cells—Stable HEK293T STING-expressing cell lines were generated using plasmids purchased from Invivogen, CA, USA, that contain STING cDNA cloned into the pUNO-1 vector under hEF1-HTLV promoter and containing the Blasticidin selection cassette. The plasmids hSTING (R232), hSTING (H232), hSTING (HAQ) were directly procured from Invivogen while hSTING (AQ) and hSTING (Q) were derived from hSTING (HAQ) and hSTING (R232) plasmids respectively by using a PCR based site directed mutagenesis method. These vectors were individually transfected into HEK293T cells using Lipofectamine (Invitrogen) and transfected cells were selected under Blasticidin selection. These transfected cells were further subjected to clonal selection using the limiting dilution method to obtain clonally pure populations of HEK cells transfected with each of the above mentioned human STING variants. Only those clones were selected in which ligand independent activation of STING was minimal. • b) Stable Luciferase reporter gene expressing cells—Stable HEK293T Luciferase reporter gene expressing cell lines were generated using pCDNA4 plasmids under an IRF-inducible promoter. This promoter is comprised of five tandem interferon-stimulated response elements (ISRE) fused to an ISG54 minimal promoter. This vector was transfected into HEK293T cells using Lipofectamine (Invitrogen) and transfected cells were selected under Zeocin selection. These transfected cells were further subjected to clonal selection using the limiting dilution method to obtain clonally pure populations of HEK cells transfected the Luciferase reporter construct. Only those clones were selected in which ligand independent induction of luciferase was minimal.
(§3) 5×10^5 clonally selected HEK293T-hSTING-Luciferase cells were seeded in 384-well plates in growth medium and stimulated with novel compounds. After 20 hr of stimulation supernatant were removed and secretary reporter gene activity were measured using the Quanti-Luc detection system (Invivogen) on a Spectramax i3X luminometer.
(§4) The 5 major polymorphisms of human STING are shown in FIG. 1, with their prevalence in human populations indicated.

hSTING (HAQ) = biological target: T3, hSTING (HAQ) (Homo sapiens, UniProt Q86WV6, G230A/H232R/R293Q/R71H); experiment: Luciferase reporter assay in HEK293T-hSTING-Luciferase cells (HAQ polymorph); format: cell-based; conditions: EC50 range
T3 construct: host or cells: HEK293T
Source text: as §2, §3, §4

T2 sequence (Q86WV6 whole entry): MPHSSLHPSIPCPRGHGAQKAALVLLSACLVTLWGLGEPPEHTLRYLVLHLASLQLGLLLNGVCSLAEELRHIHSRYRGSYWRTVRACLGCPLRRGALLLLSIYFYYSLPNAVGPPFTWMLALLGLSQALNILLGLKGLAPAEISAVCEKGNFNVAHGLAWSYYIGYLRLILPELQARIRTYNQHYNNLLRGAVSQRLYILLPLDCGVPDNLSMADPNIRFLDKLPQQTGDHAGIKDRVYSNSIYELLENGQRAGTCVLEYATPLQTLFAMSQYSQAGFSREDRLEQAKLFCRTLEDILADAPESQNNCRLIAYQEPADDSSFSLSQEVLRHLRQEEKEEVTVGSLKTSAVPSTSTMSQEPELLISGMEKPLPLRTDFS
T3 sequence (Q86WV6 whole entry R71H/G230A/H232R/R293Q): as the sequence (Q86WV6 whole entry) above, with R71H, G230A, H232R, R293Q counted along it
T1 sequence (Q86WV6 whole entry H232R): as the sequence (Q86WV6 whole entry) above, with H232R counted along it

Structure (SMILES) | pEC50 (IRF pathway; Homo sapiens, THP1-Dual, 20 h) | pEC50 (NF-κB pathway; Homo sapiens, THP1-Dual, 20 h) | pEC50 (WT/R232 STING protein) | pEC50 (hSTING (H232)) | pEC50 (hSTING (HAQ)) | pEC50 (IRF pathway) | pEC50 (NF-κB pathway)
CC1(C)C(=O)N(Cc2c(F)cccc2Cl)c2cc(C(=O)NCc3ccc(F)cc3F)ccc21 [Example 26, 1-(2-chloro-6-fluorobenzyl)-N-(2,4-difluorobenzyl)-3,3-dimethyl-2-oxoindoline-6-carboxamide] | 5.00 to 6.00 | 5.00 to 6.00 | ≥ 6.00 | ≥ 6.00 | ≥ 6.00 |  | 
CC1(C)C(=O)N(Cc2c(F)cccc2Cl)c2cc(C(=O)NCc3cc4ccccc4o3)ccc21 [Example 36, N-(benzofuran-2-ylmethyl)-1-(2-chloro-6-fluorobenzyl)-3,3-dimethyl-2-oxoindoline-6-carboxamide] | 5.00 to 6.00 | 5.00 to 6.00 | ≥ 6.00 | 5.00 to 6.00 | 5.00 to 6.00 |  | 
CC1(C)C(=O)N(Cc2c(F)cccc2Cl)c2cc(C(=O)NCc3ccc4ccoc4c3)ccc21 [Example 90, N-(benzofuran-6-ylmethyl)-1-(2-chloro-6-fluorobenzyl)-3,3-dimethyl-2-oxoindoline-6-carboxamide] | 5.00 to 6.00 | 5.00 to 6.00 | ≥ 6.00 | 5.00 to 6.00 | 5.00 to 6.00 |  | 
C=CCC1(C)C(=O)N(Cc2cc(C)nn2CC)c2cc(C(=O)NCc3c(F)cc(F)cc3F)ccc21 (centres unmarked) [Example 175, 3-allyl-1-((1-ethyl-3-methyl-1H-pyrazol-5-yl)methyl)-3-methyl-2-oxo-N-(2,4,6-trifluorobenzyl)indoline-6-carboxamide] | 5.00 to 6.00 | 5.00 to 6.00 | 5.00 to 6.00 | 5.00 to 6.00 | 5.00 to 6.00 |  | 
CC1(Cl)C(=O)N(Cc2cc(F)cc(F)c2)c2cc(C(=O)NCc3c(F)cc(F)cc3F)ccc21 (centres unmarked) [Example 148] |  |  | 5.00 to 6.00 | 5.00 to 6.00 | 5.00 to 6.00 | < 5.00 | < 5.00
Cc1nn(C)c(CN2C(=O)C(C)(C)c3ccc(C(=O)NCc4cc5ccccc5o4)cc32)c1Br [Example 112, N-(benzofuran-2-ylmethyl)-1-((4-bromo-1,3-dimethyl-1H-pyrazol-5-yl)methyl)-3,3-dimethyl-2-oxoindoline-6-carboxamide] | 5.00 to 6.00 | 5.00 to 6.00 | ≥ 6.00 | ≥ 6.00 | ≥ 6.00 |  | 
Cc1nn(C)c(CN2C(=O)C(C)(C)c3ccc(C(=O)NCc4cc5cc(F)c(F)cc5o4)cc32)c1F [Example 114, N-((5,6-difluorobenzofuran-2-yl)methyl)-1-((4-fluoro-1,3-dimethyl-1H-pyrazol-5-yl)methyl)-3,3-dimethyl-2-oxoindoline-6-carboxamide] | 5.00 to 6.00 | 5.00 to 6.00 | ≥ 6.00 | ≥ 6.00 | ≥ 6.00 |  | 
CC1(C)C(=O)N(Cc2cc(F)cc(F)c2)c2cc(C(=O)NCc3cc4ccccc4o3)ccc21 [Example 23, N-(benzofuran-2-ylmethyl)-1-(3,5-difluorobenzyl)-3,3-dimethyl-2-oxoindoline-6-carboxamide] | < 5.00 | 5.00 to 6.00 | ≥ 6.00 | 5.00 to 6.00 | 5.00 to 6.00 |  | 
CC1(Cl)C(=O)N(Cc2cc(F)cc(F)c2)c2cc(C(=O)NCc3c(F)cc(F)cc3F)ccc21 (centres unmarked) [Example 147, 3-chloro-1-(3,5-difluorobenzyl)-3-methyl-2-oxo-N-(2,4,6-trifluorobenzyl)indoline-6-carboxamide] |  |  | ≥ 6.00 | < 5.00 | < 5.00 | < 5.00 | < 5.00
CC1(C)C(=O)N(Cc2cc(F)cc(F)c2)c2nc(C(=O)NCc3ccccc3)ccc21 [Example 191, N-benzyl-1-(3,5-difluorobenzyl)-3,3-dimethyl-2-oxo-2,3-dihydro-1H-pyrrolo[2,3-b]pyridine-6-carboxamide] | < 5.00 | < 5.00 | 5.00 to 6.00 | 5.00 to 6.00 | 5.00 to 6.00 |  | 
Cc1cc(CN2C(=O)C(C)(C)c3ccc(C(=O)NCc4cc5ccccc5o4)cc32)n(C)n1 [Example 107, N-(benzofuran-2-ylmethyl)-1-((1,3-dimethyl-1H-pyrazol-5-yl)methyl)-3,3-dimethyl-2-oxoindoline-6-carboxamide] | 5.00 to 6.00 | 5.00 to 6.00 | ≥ 6.00 | 5.00 to 6.00 | 5.00 to 6.00 |  | 
Cc1nn(C)c(CN2C(=O)C(C)(C)c3ccc(C(=O)NCc4cc5cc(F)ccc5o4)cc32)c1F [Example 115, 1-((4-fluoro-1,3-dimethyl-1H-pyrazol-5-yl)methyl)-N-((5-fluorobenzofuran-2-yl)methyl)-3,3-dimethyl-2-oxoindoline-6-carboxamide] | 5.00 to 6.00 | 5.00 to 6.00 | ≥ 6.00 | ≥ 6.00 | ≥ 6.00 |  | 

Second part, the molecule after the results:

pEC50 (IRF pathway; Homo sapiens, THP1-Dual, 20 h) | pEC50 (NF-κB pathway; Homo sapiens, THP1-Dual, 20 h) | pEC50 (WT/R232 STING protein) | pEC50 (hSTING (H232)) | pEC50 (hSTING (HAQ)) | pEC50 (IRF pathway) | pEC50 (NF-κB pathway) | Structure (SMILES)
< 5.00 | < 5.00 | ≥ 6.00 | < 5.00 | < 5.00 |  |  | CC1(C)C(=O)N(Cc2c(F)cccc2Br)c2cc(C(=O)NCc3c(F)cc(F)cc3F)ccc21 [Example 108, 1-(2-bromo-6-fluorobenzyl)-3,3-dimethyl-2-oxo-N-(2,4,6-trifluorobenzyl)indoline-6-carboxamide]
< 5.00 | < 5.00 | ≥ 6.00 | 5.00 to 6.00 | 5.00 to 6.00 |  |  | CC1(C)C(=O)N(Cc2noc3ncccc23)c2cc(C(=O)NCc3c(F)cc(F)cc3F)ccc21 [Example 97, 1-(isoxazolo[5,4-b]pyridin-3-ylmethyl)-3,3-dimethyl-2-oxo-N-(2,4,6-trifluorobenzyl)indoline-6-carboxamide]
5.00 to 6.00 | 5.00 to 6.00 | ≥ 6.00 | 5.00 to 6.00 | ≥ 6.00 |  |  | CC1(C)C(=O)N(Cc2ccc(F)cc2)c2cc(C(=O)NCc3c(F)cc(F)cc3F)ccc21 [Example 20, 1-(4-fluorobenzyl)-3,3-dimethyl-2-oxo-N-(2,4,6-trifluorobenzyl)indoline-6-carboxamide]
< 5.00 | < 5.00 | 5.00 to 6.00 | 5.00 to 6.00 | 5.00 to 6.00 |  |  | COc1cccc(CN2C(=O)C(C)(C)c3ccc(C(=O)NCc4c(F)cc(F)cc4F)cc32)c1F [Example 104, 1-(2-fluoro-3-methoxybenzyl)-3,3-dimethyl-2-oxo-N-(2,4,6-trifluorobenzyl)indoline-6-carboxamide]
5.00 to 6.00 | 5.00 to 6.00 | ≥ 6.00 | ≥ 6.00 | ≥ 6.00 |  |  | Cc1cccc(F)c1CN1C(=O)C(C)(C)c2ccc(C(=O)NCc3c(F)cc(F)cc3F)cc21 [Example 103, 1-(2-fluoro-6-methylbenzyl)-3,3-dimethyl-2-oxo-N-(2,4,6-trifluorobenzyl)indoline-6-carboxamide]
< 5.00 | < 5.00 | 5.00 to 6.00 | 5.00 to 6.00 | 5.00 to 6.00 |  |  | Cc1cc(CN2C(=O)C(C)(C)c3ccc(C(=O)NCc4c(F)cc(F)cc4F)cc32)no1 [Example 70, 3,3-dimethyl-1-((5-methylisoxazol-3-yl)methyl)-2-oxo-N-(2,4,6-trifluorobenzyl)indoline-6-carboxamide]
< 5.00 | < 5.00 | 5.00 to 6.00 | 5.00 to 6.00 | 5.00 to 6.00 |  |  | CC1(C)C(=O)N(Cc2coc3ccccc23)c2cc(C(=O)NCc3c(F)cc(F)cc3F)ccc21 [Example 100, 1-(benzofuran-3-ylmethyl)-3,3-dimethyl-2-oxo-N-(2,4,6-trifluorobenzyl)indoline-6-carboxamide]
